One test addresses T1, Gi2 (Bos taurus, UniProt A7MBH9).
T1 construct: trimeric Gi2 (i.e., Gi2 αβγ) purified from bovine brain to near homogeneity; from tissue; host or cells: bovine brain
Put plainly: GTPγS binding, MIII-induced Gi2 activation. Type of test: biochemical, bovine. The following applies: 10 nM Gi2, 1 μM MIII, 5 min; read-out: IC50, attenuation of MIII-induced Gi2 activation. On the procedure: (§1) Materials and Methods The in vitro assays described below utilize the couplone portion of each of a number of G-coupled receptors, instead of an intact receptor molecule, as a means for activating the corresponding anticouplone or intact G-protein. […]
(§2) GTPγS binding Assay--GTPγS binding to G proteins was assayed at 37° C. in 20 mM Hepes/NaOH buffer (pH 7.4) containing 130 μM MgCl2, 110 μM EDTA and 60 nM [^35 S]GTPγS, as described previously (Okamoto et al., 1990). […] The total amount of G protein was measured as maximal GTPγS binding at room temperature, as described (Okamoto et al., Cell 67:723-730, 1991a). […] Thus, the apparent first-order rate constant for GTPγS binding (kapp), which is equal to the slope of the tangent to the GTPγS binding curve at time 0 and represents the actual GTPγS binding rate, was calculated from this equation.
The MIII peptide is a Gi /Go -activator region in the third intracellular loop of the G-coupled receptor termed M4 AChR (Okamoto et al., J. Biol. Chem. 267:8342-8346, 1992). […] In the experiments illustrated in FIG. 1D, 10 nM Go (.quadrature.) or Gi2 (.diamond-solid.) was incubated with 1 μM MIII for 2 or 5 min, respectively, and GTPγS binding was measured in the same manner as in FIG. 1A. […]

For a further test, the target named is T2, Gs (Bos taurus, UniProt P04896).
T2 construct: Trimeric Gs and Gβγ purified from bovine brain to near homogeneity; from tissue; host or cells: bovine brain
Description: GTPγS binding, βIII-2-induced Gs activation. Type of test: biochemical, bovine. Particulars: 10 nM Gs, 1 μM βIII-2, 10 min. As to the method:
as §1, §2
GTPβS binding was measured following incubation of solubilized Gs at 10 nM with 1 μM βIII-2 (RRSSKFCLKEHKALK; SEQ ID NO: 29) in the presence of ACGi2 for 10 min. […]

Where no end group is shown, it is not given here.

T2 sequence (P04896 2-394 limits assumed): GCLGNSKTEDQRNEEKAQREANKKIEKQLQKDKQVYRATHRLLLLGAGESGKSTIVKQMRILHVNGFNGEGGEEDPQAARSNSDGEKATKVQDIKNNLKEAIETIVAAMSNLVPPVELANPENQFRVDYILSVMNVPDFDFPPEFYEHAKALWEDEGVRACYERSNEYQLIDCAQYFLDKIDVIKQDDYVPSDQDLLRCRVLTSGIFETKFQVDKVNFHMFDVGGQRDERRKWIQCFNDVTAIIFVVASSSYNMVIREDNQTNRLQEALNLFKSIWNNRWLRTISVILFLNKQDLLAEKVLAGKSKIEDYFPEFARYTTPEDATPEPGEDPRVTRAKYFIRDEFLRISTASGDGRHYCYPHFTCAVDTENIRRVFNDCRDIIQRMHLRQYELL
T2 sequence (P62871 2-340 partner limits assumed): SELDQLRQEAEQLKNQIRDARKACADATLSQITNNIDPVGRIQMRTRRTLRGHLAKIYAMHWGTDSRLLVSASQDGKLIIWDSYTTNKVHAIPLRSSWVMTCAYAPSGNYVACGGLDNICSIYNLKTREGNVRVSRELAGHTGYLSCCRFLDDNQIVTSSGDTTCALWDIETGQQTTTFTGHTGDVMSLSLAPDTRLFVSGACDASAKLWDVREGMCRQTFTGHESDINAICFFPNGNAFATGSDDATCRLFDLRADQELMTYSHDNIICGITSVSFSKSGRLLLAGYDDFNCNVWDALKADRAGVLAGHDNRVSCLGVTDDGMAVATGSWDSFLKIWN
T2 sequence (P63212 2-68 partner limits assumed): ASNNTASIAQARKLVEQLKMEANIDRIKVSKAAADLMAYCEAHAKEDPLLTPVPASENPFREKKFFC
T1 sequence (A7MBH9 2-355 limits assumed): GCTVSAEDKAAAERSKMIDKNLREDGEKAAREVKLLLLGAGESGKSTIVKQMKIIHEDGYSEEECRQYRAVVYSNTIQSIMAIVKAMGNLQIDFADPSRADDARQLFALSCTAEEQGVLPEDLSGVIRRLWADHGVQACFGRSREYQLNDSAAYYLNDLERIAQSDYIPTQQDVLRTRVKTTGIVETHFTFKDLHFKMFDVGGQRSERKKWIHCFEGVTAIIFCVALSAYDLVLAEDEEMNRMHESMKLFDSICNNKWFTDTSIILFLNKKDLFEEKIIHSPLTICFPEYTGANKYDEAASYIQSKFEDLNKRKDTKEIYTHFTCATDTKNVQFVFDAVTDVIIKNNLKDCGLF
T1 sequence (P62871 2-340 partner limits assumed): as the sequence (P62871 2-340 partner limits assumed) above
T1 sequence (P63212 2-68 partner limits assumed): as the sequence (P63212 2-68 partner limits assumed) above

As to “DAVTDVIIKNNLKDC [ACGi2, DAVTDVIIKNNLKDC]”, the 50% inhibitory concentration (IC50) at Gi2 was determined as 10 µM. The “maximal inhibition of βIII-2-stimulated Gs” value at Gs is reported as 40%.
